Experimental data taken from ChEMBL document CHEMBL1150168, “Scabrolides A-D, four new norditerpenoids isolated from the soft coral Sinularia scabra” (2002).
In brackets after ≈: the same amount, converted by molar mass.

Assays:
[1] = Cytotoxicity against human HEPA 59T/VGH cells by MTT assay; type: functional; details: read-out: ED50 (the source's name)
KB = experiment: Cytotoxicity against human KB cells by MTT assay; type: functional; details: read-out: ED50 (the source's name)

Structure (SMILES)	EC50 [1]	EC50 (KB)
C=C(C)[C@H]1C/C=C(\C(=O)OC)CC(=O)C[C@@]2(C)CC(=O)[C@@H](CC(=O)C1)O2 [NORCEMBRENE 5]	17.5 µg/mL (≈ 48.3 µM)	> 20 µg/mL
C=C(C)[C@H]1C/C=C2\C(=O)O[C@H](C[C@@]3(C)CC(=O)[C@@H](CC(=O)C1)O3)[C@@H]2O	2.6 µg/mL (≈ 7.46 µM)	2.5 µg/mL (≈ 7.18 µM)
C=C(C)[C@H]1CC[C@]23O[C@H]2[C@@H](C[C@@]2(C)CC(=O)[C@H](CC(=O)C1)O2)OC3=O [SCABROLIDE D]	> 20 µg/mL	> 20 µg/mL
C=C(C)[C@@H]1CC(=O)[C@H]2[C@H](C1)[C@@H]1C(=O)O[C@@H]3C[C@@]4(C)O[C@@H]2C(=O)[C@@H]4[C@H]13	> 20 µg/mL	> 20 µg/mL
C=C(C)[C@H]1C/C=C2\C(=O)O[C@H](C[C@@]3(C)CC(=O)[C@@H](CC(=O)C1)O3)[C@H]2O	2.4 µg/mL (≈ 6.89 µM)	2.3 µg/mL (≈ 6.6 µM)
COc1cccc2c1C(=O)c1c(O)c3c(c(O)c1C2=O)C[C@@](O)(C(=O)CO)C[C@@H]3O[C@H]1C[C@H](N)[C@H](O)[C@H](C)O1 [DOXORUBICIN]	0.3 µg/mL (≈ 0.552 µM)	0.3 µg/mL (≈ 0.552 µM)
C=C(C)[C@@H]1CC(=O)C[C@@H]2O[C@](C)(CC2=O)C[C@@H]2C=C(C(=O)O2)[C@@H](OC)C1 [SCABROLIDE C]	17.8 µg/mL (≈ 49.1 µM)	11.9 µg/mL (≈ 32.8 µM)
C=C(C)[C@@H]1CC(=O)CC2=C(C1)[C@@H]1C(=O)O[C@@H]3C[C@](C)(O)[C@H](C2=O)[C@H]13 [SCABROLIDE A]	> 20 µg/mL	> 20 µg/mL
